US8815903B2, “Indole derivative and pharmacologically acceptable salt thereof” (Kissei Pharmaceutical Co., Ltd., priority 2011, dated 2014)

Experiments:
[1] = molecular target: T1, rat EP1 receptor (Rattus norvegicus, UniProt P70597); test: Test for confirmation of EP1 receptor antagonism (inhibition of PGE2-induced increase in intracellular calcium concentration); assay type: cell-based; conditions: rat EP1 receptor-expressing COS-1 cells; prostaglandin E2 10 nM; fluorescent calcium indicator, FDSS 7000
T1 construct: expressed in transfected cells
T1 sequence (P70597 1-405): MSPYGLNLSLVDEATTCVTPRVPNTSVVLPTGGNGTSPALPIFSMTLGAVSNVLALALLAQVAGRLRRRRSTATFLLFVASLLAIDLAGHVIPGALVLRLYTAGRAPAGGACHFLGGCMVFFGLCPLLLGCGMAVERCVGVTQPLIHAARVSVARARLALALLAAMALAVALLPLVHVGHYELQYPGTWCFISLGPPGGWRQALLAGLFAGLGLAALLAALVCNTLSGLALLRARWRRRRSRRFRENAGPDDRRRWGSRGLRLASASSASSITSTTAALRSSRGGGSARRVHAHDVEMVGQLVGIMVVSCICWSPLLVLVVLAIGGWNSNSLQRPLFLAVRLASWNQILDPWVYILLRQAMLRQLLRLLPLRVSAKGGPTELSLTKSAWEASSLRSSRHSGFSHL
Protocol: Test for Confirmation of EP1 Receptor Antagonism
(1) Preparation of Rat EP1 Expression Vector
Using Rat Kidney BD Marathon-Ready cDNA (Nippon Becton Dickinson Company, Ltd.) as a template, a forward primer shown in (SEQ ID NO:1), and a reverse primer shown in (SEQ ID NO:2), a first run of PCR was carried out using KOD-Plus-Ver 2.0 (Toyobo Co., Ltd.). Further, using this amplification product as a template, a forward primer shown in (SEQ ID NO:3), and a reverse primer shown in (SEQ ID NO:4), a second run of PCR was carried out in the same manner. The amplification product obtained by the second run of PCR was incorporated into a vector (pcDNA3.1 D/V5-His-TOPO (registered trademark), Invitrogen Japan K. K.). By a conventional method, the vector containing this amplification product was introduced to E. coli (One Shot TOP 10 Competent Cells, Invitrogen Corporation) to transform. This transformed E. coli was cultured in an LB agar medium for one day. After the culture, colonies were selected and cultured in an LB liquid medium containing 50 μg/mL of ampicillin. After the culture, the vector was purified using a QIAprep Spin Miniprep Kit (Qiagen K. K.). The base sequence of the insertion site of this vector (SEQ ID NO:5) was compared with the rat EP1 base sequence (Ptger1) registered as Accession No. NM_013100 in publicly-known database (NCBI), and as a result, they all matched except for a single base. Further, the amino acid sequence translated by the base sequence completely matched the amino acid sequence of the rat EP1 receptor registered as an NCBI Accession No. NP_037232. Therefore, it was confirmed that the cloned gene sequence was a base sequence of the rat EP1 receptor and the obtained amino acid sequence was that of the rat EP1 receptor. The pcDNA3.1 D/V5-His-TOPO (registered trademark) to which the nucleic acid shown in (SEQ ID NO:5) had been inserted was taken as a rat EP1-expressing vector.
(2) Preparation of Rat EP1 Receptor-Expressing Cells
COS-1 cells (Dainippon Sumitomo Pharma Co., Ltd.) were cultured until they reached confluence in an incubator at 37° C. under a 5% CO2 gas condition, using a D-MEM liquid medium (high glucose and L-glutamine contained, Invitrogen Corporation) to which a penicillin-streptomycin solution (Invitrogen Corporation, final concentration: 100 U/mL as benzylpenicillin; 100 μg/mL as streptomycin) as an antibiotic, MEM nonessential amino acids (Invitrogen Corporation, final concentration: 0.1 mM), and fetal calf serum (Sanko Junyaku Co., Ltd., final concentration: 10%) were added.
The cells that had reached confluence were stripped with 0.05% trypsin/0.53 mM EDTA.4Na, and resuspended in a D-MEM liquid medium (high glucose and L-glutamine contained, Invitrogen Corporation) to which an MEM nonessential amino acid (final concentration: 0.1 mM) and fetal calf serum (final concentration: 10%) were added. In each well of a Poly D-lysine-coated 96-well microplate (BD BioCoat (registered trademark), Nippon Becton Dickinson Company, Ltd.), this resuspended cell suspension culture was prepared to be 5×10^4 cells/well in 100 μL of the liquid medium, and 100 μL of the cell suspension was seeded on each well. After seeding, the cells were cultured in an incubator at 37° C. under a 5% CO2 gas condition. At a point when the cells for introduction of a rat EP1-expressing vector were adhered (about 2 hours after seeding), introduction of the rat EP1-expressing vector was carried out in the following order.
For introduction of the rat EP1-expressing vector, Lipofectamine 2000 (Invitrogen Japan K. K.) was used. The rat EP1-expressing vector was diluted with OPTI-MEM (registered trademark) I Reduced-Serum Medium (Invitrogen Japan K. K.) to 200 ng/25 μL/well, and at the same time, Lipofectamine 2000 (Invitrogen Japan K. K.) was also diluted with OPTI-MEM (registered trademark) I Reduced-Serum Medium (Invitrogen Japan K. K.) to 0.5 μL/25 μL/well, followed by incubation at room temperature for 5 minutes. […]

[2] = system: Sulprostone-Induced Bladder Contraction; test: Inhibitory effect of compound on sulprostone-induced bladder contraction; assay type: in vivo, rat; conditions: female SD rats, urethane anesthesia, sulprostone 0.3 mg/kg s.c., test agent 1.0 mg/kg intravenously; for Bladder Contraction Inhibition Rate 15 minutes: 15 minutes from administration; for Bladder Contraction Inhibition Rate 60 minutes: 60 minutes from administration
From the text: Inhibitory Effect of Compound on Sulprostone-Induced Bladder Contraction
Female SD rats were used. Under urethane anesthesia (1.25 g/kg, administered subcutaneously), a tracheal cannula (Size 8, HIBIKI) and a femoral vein cannula for administration (23 G needle-equipped PESO) were inserted thereinto. The bladder cannula (PESO) was inserted from the bladder apex. The bladder cannula was connected to a three-way stopcock, and then, one was connected to a pressure transducer and the other was connected to a syringe filled with saline. Saline was injected to the bladder at an injection rate of 3.6 mL/hour and the bladder contraction pressure was recorded at the time of injection with a recorder (RECTI-HORITZ-8K, NEC Corporation). After 10 minutes from stabilization of the bladder contraction pressure during urination, sulprostone was administered subcutaneously (0.3 mg/kg). Then, at the time point when the bladder contraction pressure became constant, a test agent was administered intravenously (1.0 mg/kg). An average bladder contraction pressure during the 10 minute period before administration of sulprostone was taken as a baseline (0%). Further, an average bladder contraction pressure during the 10 minute period directly before administration of the test agent was taken as a maximum bladder contraction pressure (100%). The average bladder contraction pressures were measured during 5 minutes before and after at 15 minutes and 60 minutes from administration of the test agent. The ratio of this measured value to the maximum bladder contraction pressure was calculated by the following equation and taken as an average bladder contraction rate after administration of the test agent: (Average Bladder Contraction Rate after Administration of Test Agent (%))=[(Average Bladder Contraction Pressure after Administration of Test Agent)/(Maximum Bladder Contraction Pressure)]×100 EQUATION 1
In addition, the difference between the maximum bladder contraction rate (100%) and the average bladder contraction rate (%) after administration of the test agent was calculated by the following equation and taken as a bladder contraction inhibition rate of the test agent: (Bladder Contraction Inhibition Rate)=100%−(Average Bladder Contraction Rate after Administration of Test Agent (%)) EQUATION 2

| IC50 [1] [µM] | Compound | Bladder Contraction Inhibition Rate 15 minutes [2] [%] | Bladder Contraction Inhibition Rate 60 minutes [2] [%] |
| --- | --- | --- | --- |
| 0.015 | Cc1ccc2c(Cc3cccc(-c4nnn[nH]4)n3)c(-c3ccccc3)[nH]c2c1 [Example 5-3, 6-methyl-2-phenyl-3-[6-(1H-tetrazol-5-yl)pyridin-2-ylmethyl]-1H-indole] | 78.2 | 75.8 |
| 0.02 | COc1ccc2c(Cc3cccc(-c4nnn[nH]4)n3)c(C(C)(C)C)[nH]c2c1 [Example 5-7, 2-tert-butyl-6-methoxy-3-[6-(1H-tetrazol-5-yl)pyridin-2-ylmethyl]-1H-indole] | 74.8 | 71.0 |
| 0.0057 | COc1ccc2c(Cc3cccc(-c4nnn[nH]4)n3)c(-c3ccoc3)[nH]c2c1 [Example 5-11, 2-furan-3-yl-6-methoxy-3-[6-(1H-tetrazol-5-yl)pyridin-2-ylmethyl]-1H-indole] | 99.0 | 99.8 |
| 0.026 | COc1ccc2c(Cc3cccc(-c4noc(=O)[nH]4)n3)c(-c3ccccc3)[nH]c2c1 [Example 7-1, 3-[6-(6-Methoxy-2-phenyl-1H-indol-3-ylmethyl)pyridin-2-yl]-4,5-dihydro-1,2,4-oxadiazol-5-one] | 66.3 | 83.0 |
| 0.026 | COc1ccc2c(Cc3cccc(C(=O)NC#N)n3)c(-c3ccccc3)[nH]c2c1 [Example 10, N-Cyano-6-(6-methoxy-2-phenyl-1H-indol-3-ylmethyl)pyridine-2-carboxamide] | 82.9 | 90.7 |
| 0.037 | Cc1ccc2c(Cc3cccc(-c4noc(=O)[nH]4)n3)c(-c3ccoc3)[nH]c2c1 [Example 12-11] | 74.9 | 46.7 |
| 0.026 | O=c1[nH]c(-c2cccc(Cc3c(-c4ccoc4)[nH]c4cc(C5CC5)ccc34)n2)no1 [Example 12-13] | 72.9 | 96.0 |
| 0.039 | COc1ccc2c(Cc3cccc(-c4noc(=O)[nH]4)n3)c(C3(C)CC3)[nH]c2c1 [Example 12-14] | 80.5 | 59.1 |
| 0.011 | COc1ccc2c(Cc3cccc(-c4nnn[nH]4)n3)c(C3(C)CC3)[nH]c2c1 [Example 17-11, 6-methoxy-2-(1-methylcyclopropyl)-3-[6-(1H-tetrazol-5-yl)pyridin-2-ylmethyl]-1H-indole] | 92.8 | 100.9 |
| 0.014 | Cc1ccc2c(Cc3cccc(-c4nnn[nH]4)n3)c(C3(C)CC3)[nH]c2c1 [Example 17-12, 6-methyl-2-(1-methylcyclopropyl)-3-[6-(1H-tetrazol-5-yl)pyridin-2-ylmethyl]-1H-indole] | 81.9 | 74.7 |
| 0.027 | COc1cc2[nH]c(C3(C)CC3)c(Cc3cccc(-c4nnn[nH]4)n3)c2cc1Cl [Example 20-3, 5-chloro-6-methoxy-2-(1-methylcyclopropyl)-3-[6-(1H-tetrazol-5-yl)pyridin-2-ylmethyl]-1H-indole] | 71.7 | 50.0 |
